Here are results for eight compounds from US9359275B2, “Natural product antibiotics and analogs thereof” (Children's Medical Center Corporation, priority 2012, dated 2016).

In assay [1] the test system is V. cholerae. The assay can be described thus: Medium acidification (sugar fermentation) assay in pH-MMSuc, A615. The following applies: 30° C.
Description: The assays were carried out at 30° C. in pH-MMSuc to monitor sugar fermentation by A615 (FIGS. 5A, 5B, and 5C) or in MMPyr to monitor bacterial growth by OD615 (D, E, and F).
The assays were carried out at 30° C. in pH-MMSuc to monitor sugar fermentation by A615.
A minimal medium (MM) supplemented with sucrose (0.5% wt/vol), thymol blue (0.006% wt/vol) and bromothymol blue (0.006% wt/vol) (pH-MM^Suc) was used for the HTS (Houot et al., J Bacteriol (2008) 190: 311-320).
Conditions were tested in duplicate in each experiment, and two experimental replicates were performed on separate days.
Assay [2] relates to V. cholerae. The assay can be described thus: Growth assay in MMPyr (OD615) and plating for CFU. To be noted: with the assay described.
Description: The assays were carried out at 30° C. in pH-MMSuc to monitor sugar fermentation by A615 (FIGS. 5A, 5B, and 5C) or in MMPyr to monitor bacterial growth by OD615 (D, E, and F). Bacteria were exposed to compound 1 (FIGS. 5A and 5D), compound 2 (FIGS. 5B and 5E) or compound 3 (FIGS. 5C and 5F) at concentrations ranging from 14 to 383 μM.
In secondary screens, MM was also supplemented with glucose (0.5% wt/vol), thymol blue (0.006% wt/vol), and bromothymol blue (0.006% wt/vol) (pH-MM^Glu') or pyruvate (0.5% wt/vol) (MM^Pyr).
Conditions were tested in duplicate in each experiment, and two experimental replicates were performed on separate days. […] To determine whether this represented bacteriostatic or bactericidal activity, dilutions of the cell suspensions were plated on LB agar after 20 hours of growth in MM^Pyr supplemented with compound 1 at a concentration of 383 μM.
The test system of another assay is E. coli ATCC 25922. The assay can be described thus: MIC, microdilution broth method in CAMHB. The class given is cell-based, Escherichia coli. On the technique in general: Broth dilution looks for growth in wells or tubes with falling amounts of substance.
For another assay, the system named is P. aeruginosa ATCC 27853. The assay can be described thus: MIC, microdilution broth method in CAMHB. Type of assay: cell-based, Pseudomonas aeruginosa.
Assay [3] concerns K. pneumoniae carbapenemase positive ATCC BAA-1705. Description: MIC, microdilution broth method in CAMHB. Type of assay: cell-based, Klebsiella pneumoniae.
Another assay concerns MRSA ATCC BAA-976. The assay can be described thus: MIC, microdilution broth method in CAMHB. Type of assay: cell-based, Staphylococcus aureus.
The next assay has as its system V. cholerae PW357. Description: MIC, microdilution broth method in CAMHB. Type of assay: cell-based, Vibrio cholerae.
In assay [4] the test system is M. tuberculosis H37Rv ATCC 27294. The assay can be described thus: MIC, microplate-based Alamar blue assay (MABA). Type of assay: cell-based, Mycobacterium tuberculosis. (In general: Alamar Blue is a resazurin reagent that responds to reducing activity.)
[5] abbreviates: Escherichia coli, ATCC25922, E. coli ATCC 25922, read-out: MIC.
Setting [6] is: Pseudomonas aeruginosa, ATCC27853, P. aeruginosa ATCC 27853, read-out: MIC.
[7] abbreviates: Klebsiella pneumoniae, ATCCBAA1705, K. pneumoniae carbapenemase positive ATCC BAA-1705, read-out: MIC.
[8] abbreviates: Staphylococcus aureus, MRSA ATCC BAA-976, read-out: MIC.
Where [9] appears, read: Vibrio cholerae, V. cholerae PW357, read-out: MIC.
The mark [10] stands for this setting: Mycobacterium tuberculosis, M. tuberculosis H37Rv ATCC 27294, Alamar Blue Assay, ≧90% inhibition, read-out: MIC.

The term MIC denotes the lowest concentration found to suppress growth.

Values after ≈ are worked out from the molar mass of the structure shown. Read-outs that look alike come from different tables or passages of the source.

Consider `CC1(O)CCC(c2c(O)cc3c(c2O)C(=O)c2c(O)cc(O)cc2C3=O)CO1` (centres unmarked) [SC3-22-19], for which, in the assay on V. cholerae [1], the sugar utilization result is “decreased sugar utilization”.

As for `CC1Cc2c(ccc(O)c2CO)O1` (centres unmarked) [Compound 2, 5-hydroxy-4-(hydroxymethyl)-2-methyl 2,3-dihydrobenzofuran], in the assay on V. cholerae [2], the “antibacterial activity (in words)” value is recorded as “demonstrated anti-bacterial activity”.

Consider bactrim [TMP/SMX], for which the minimal inhibitory concentration (MIC) against E. coli ATCC 25922 (E. coli ATCC 25922) was 0.125 µg/mL; with P. aeruginosa ATCC 27853 it was >16 µg/mL; in assay [3] (K. pneumoniae carbapenemase positive ATCC BAA-1705), >16 µg/mL; with MRSA ATCC BAA-976 (MRSA ATCC BAA-976) it was 0.062 µg/mL; against V. cholerae PW357 (V. cholerae PW357), >16 µg/mL; in assay [4] (M. tuberculosis H37Rv ATCC 27294, Alamar Blue Assay, ≧90% inhibition), 2 µg/mL.

`CCCc1c(O)ccc(O)c1CO` [Compound 1, 2-(hydroxymethyl)-3-propyl hydroquinone]: the minimum inhibitory concentration (MIC) in the assay with E. coli ATCC 25922 (Escherichia coli, ATCC25922) was 80 µg/mL (≈ 439 µM); against P. aeruginosa ATCC 27853 (Pseudomonas aeruginosa, ATCC27853) it was 80 µg/mL (≈ 439 µM); in assay [3] (Klebsiella pneumoniae, ATCCBAA1705) it was > 80 µg/mL; in the assay on MRSA ATCC BAA-976 (Staphylococcus aureus) it was 10 µg/mL (≈ 54.9 µM); against V. cholerae PW357 (Vibrio cholerae, PW357) it was 40 µg/mL (≈ 220 µM); in assay [4] (Mycobacterium tuberculosis), 25 µg/mL (≈ 137 µM). In the assay on V. cholerae [1], the “concentration at which medium acidification was completely blocked” value worked out at 261 µM. For the same compound, the “concentration at which medium acidification was inhibited” value in the assay on V. cholerae [1] turned out to be 134 µM.

Consider `CCCC1=C(CO)C(=O)C=CC1=O` [Compound 3, 2-(hydroxymethyl)-3-propyl benzoquinone], for which the “antibacterial activity (in words)” value in the assay with V. cholerae [2] is reported as “little to no antibacterial activity”.

Turning to `C[C@@H](O)[C@H]1C(=O)N2C(C(=O)O)=C(SCCN=CN)C[C@H]12` [IMI, imipenem], the MIC with E. coli ATCC 25922 (setting [5]) is 1.25 µg/mL (≈ 4.18 µM); with P. aeruginosa ATCC 27853 (setting [6]), 5 µg/mL (≈ 16.7 µM); in assay [3] (setting [7]), > 80 µg/mL; in the assay with MRSA ATCC BAA-976 (setting [8]), 1.25 µg/mL (≈ 4.18 µM); with V. cholerae PW357 (setting [9]), 1.25 µg/mL (≈ 4.18 µM); in assay [4] (setting [10]) it was 100 µg/mL (≈ 334 µM).

On to `CC1(C)S[C@@H]2[C@H](NC(=O)[C@H](N)c3ccccc3)C(=O)N2[C@H]1C(=O)O` [AMP, ampicillin], for which the minimum inhibitory concentration (MIC) in the assay on E. coli ATCC 25922 (setting [5]) was 2.5 µg/mL (≈ 7.15 µM); in the assay with P. aeruginosa ATCC 27853 (setting [6]) it was > 80 µg/mL; in assay [3] (setting [7]), > 80 µg/mL; with MRSA ATCC BAA-976 (setting [8]), > 80 µg/mL; in the assay on V. cholerae PW357 (setting [9]), 2.5 µg/mL (≈ 7.15 µM); in assay [4] (setting [10]) it was 0.25 µg/mL (≈ 0.715 µM).

On to `C[C@H]1COc2c(N3CCN(C)CC3)c(F)cc3c(=O)c(C(=O)O)cn1c23` [LEVO, levofloxacin], for which the minimal inhibitory concentration (MIC) was 0.019 µg/mL (≈ 0.0526 µM) in the assay on E. coli ATCC 25922 (setting [5]); 1.25 µg/mL (≈ 3.46 µM) in the assay with P. aeruginosa ATCC 27853 (setting [6]); > 80 µg/mL in assay [3] (setting [7]); 0.312 µg/mL (≈ 0.863 µM) with MRSA ATCC BAA-976 (setting [8]); < 0.005 µg/mL in the assay on V. cholerae PW357 (setting [9]); 0.25 µg/mL (≈ 0.692 µM) in assay [4] (setting [10]).
